For the assay, the target named is Sentrin-specific protease 1 (Homo sapiens) (UniProt Q9P0U3). Put plainly: SENP1 catalytic domain blockers, concentration series – biochemical, kinetic FRET, dose response (AID 651697). The note with it: recombinant SENP1 catalytic domain, kinetic FRET protease assay.

pIC50: −log10 of the molar value.

Sentrin-specific protease 1 (Homo sapiens), sequence (Q9P0U3 419-644 limits assumed): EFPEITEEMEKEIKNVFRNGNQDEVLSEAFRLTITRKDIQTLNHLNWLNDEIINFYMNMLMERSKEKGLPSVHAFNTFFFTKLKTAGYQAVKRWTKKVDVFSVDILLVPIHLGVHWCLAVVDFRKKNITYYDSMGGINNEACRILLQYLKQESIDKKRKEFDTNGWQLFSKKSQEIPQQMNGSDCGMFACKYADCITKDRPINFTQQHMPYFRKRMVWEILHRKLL

As for `O=C(c1ccccc1)[C@@H]1[C@@H]2C(=O)N(c3ccc(F)cc3)C(=O)[C@@H]2C2CCCN21` (some centres undefined), the negative-log IC50 (pIC50) was 5.11.

For the compound `COCCNC(=O)c1cccc2c1C(=O)c1ccc(N3CCOCC3)cc1S2(=O)=O`, the pIC50 is 4.85.

`Cc1nc2ccc(NS(=O)(=O)c3ccc(F)cc3F)cc2s1`: the pIC50 is 4.73.

On to `Oc1ccc(Cl)cc1C1=Nc2ccccc2N=C(c2ccco2)C1`, for which the pIC50 is 5.08.

By pIC50 is commonly meant −log10 of the IC50, conventionally taken in molar units.

Source of the values: PubChem BioAssay AID651697 (Sanford-Burnham Center for Chemical Genomics, 2012).
